“And” between values parts separate entries of the source, which are not always exact repeats. Equal entries are not always repeated. Toxic doses and inconclusive results are not listed. No stated cut-off is given here; in the data, active means T/C of 150% or more; inactive means T/C below 125%.
System: L1210 leukemia ip in BDF1 mice, survival T/C
Assay: NCI In Vivo Anticancer Drug Screen. Data for tumor model L1210 Leukemia (intraperitoneal) in B6D2F1 (BDF1) mice
Settings: endpoint: mean survival time, higher = longer survival
Method in brief: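 Transplanted-tumor mice were given test agent; controls received vehicle only. Survival readings from the two groups were divided (treated over control).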

[1] = dose: 50.0 mg/kg/injection, schedule: Q01DX001 (ip), vehicle: carboxymethylcellulose (CMC)
[2] = dose: 100.0 mg/kg/injection, schedule: Q01DX001 (ip), vehicle: carboxymethylcellulose (CMC)
[3] = dose: 200.0 mg/kg/injection, schedule: Q01DX001 (ip), vehicle: carboxymethylcellulose (CMC)
[4] = dose: 400.0 mg/kg/injection, schedule: Q01DX001 (ip), vehicle: carboxymethylcellulose (CMC)
[5] = dose: 100.0 mg/kg/injection, schedule: Q04DX002 (ip), vehicle: Klucel (hydroxypropylcellulose) (HPC)
[6] = dose: 200.0 mg/kg/injection, schedule: Q04DX002 (ip), vehicle: Klucel (hydroxypropylcellulose) (HPC)
[7] = dose: 400.0 mg/kg/injection, schedule: Q04DX002 (ip), vehicle: Klucel (hydroxypropylcellulose) (HPC)
[8] = dose: 100.0 mg/kg/injection, schedule: Q01DX009 (ip), vehicle: saline with Tween-80
[9] = dose: 100.0 mg/kg/injection, schedule: Q04DX003 (ip), vehicle: saline with Tween-80
[10] = dose: 200.0 mg/kg/injection, schedule: Q04DX003 (ip), vehicle: saline with Tween-80
[11] = dose: 400.0 mg/kg/injection, schedule: Q04DX003 (ip), vehicle: saline with Tween-80
[12] = dose: 25.0 mg/kg/injection, schedule: Q04DX002 (ip), vehicle: saline
[13] = dose: 50.0 mg/kg/injection, schedule: Q04DX002 (ip), vehicle: saline
[14] = dose: 100.0 mg/kg/injection, schedule: Q04DX002 (ip), vehicle: saline
[15] = dose: 100.0 mg/kg/injection, schedule: Q04DX003 (ip), vehicle: Klucel (hydroxypropylcellulose) (HPC)
[16] = dose: 200.0 mg/kg/injection, schedule: Q04DX003 (ip), vehicle: Klucel (hydroxypropylcellulose) (HPC)
[17] = dose: 400.0 mg/kg/injection, schedule: Q04DX003 (ip), vehicle: Klucel (hydroxypropylcellulose) (HPC)
[18] = dose: 100.0 mg/kg/injection, schedule: Q01DX001 (ip), vehicle: saline
[19] = dose: 200.0 mg/kg/injection, schedule: Q01DX001 (ip), vehicle: saline
[20] = dose: 100.0 mg/kg/injection, schedule: Q01DX009 (ip), vehicle: Klucel (hydroxypropylcellulose) (HPC)
[21] = dose: 200.0 mg/kg/injection, schedule: Q01DX009 (ip), vehicle: Klucel (hydroxypropylcellulose) (HPC)
[22] = dose: 400.0 mg/kg/injection, schedule: Q01DX001 (ip), vehicle: saline
[23] = dose: 100.0 mg/kg/injection, schedule: Q04DX003 (ip), vehicle: saline
[24] = dose: 200.0 mg/kg/injection, schedule: Q04DX003 (ip), vehicle: saline
[25] = dose: 400.0 mg/kg/injection, schedule: Q04DX003 (ip), vehicle: saline

Measured: T/C

O=C1OC(c2ccccc2)=N/C1=C\c1ccccc1
inactive: [1] 93 % of control | [2] 95 % of control | dose: 100.0 mg/kg/injection, schedule: Q04DX002 (ip), vehicle: gum acacia 91 % of control | [3] 101 % of control | dose: 200.0 mg/kg/injection, schedule: Q04DX002 (ip), vehicle: gum acacia 109 % of control | [4] 90 % of control | dose: 400.0 mg/kg/injection, schedule: Q04DX002 (ip), vehicle: gum acacia 98 % of control

c1ccc(-c2c3ccccc3c(-c3ccccc3)c3cc4ccccc4cc23)cc1
inactive: [5] 95 % of control | [6] 98 % of control | [7] 92 % of control

CC(=O)C(C)(CCC(=O)NC(C)(C)C)CCC(=O)NC(C)(C)C
inactive: [8] 94 % of control | [9] 95 % of control | dose: 200.0 mg/kg/injection, schedule: Q01DX009 (ip), vehicle: saline with Tween-80 100 % of control | [10] 95 % of control | dose: 400.0 mg/kg/injection, schedule: Q01DX009 (ip), vehicle: saline with Tween-80 93 % of control | [11] 93 % of control

CCN(CC)C(=O)c1cc(NC(=O)Nc2ccc(C3=NCCN3)cc2)cc(NC(=O)Nc2ccc(C3=NCCN3)cc2)c1
inactive: dose: 62.0 mg/kg/injection, schedule: Q01DX Z (ip), vehicle: carboxymethylcellulose (CMC) 91 % of control | dose: 125.0 mg/kg/injection, schedule: Q01DX Z (ip), vehicle: carboxymethylcellulose (CMC) 97 % of control | dose: 250.0 mg/kg/injection, schedule: Q01DX Z (ip), vehicle: carboxymethylcellulose (CMC) 97 % of control | dose: 500.0 mg/kg/injection, schedule: Q01DX Z (ip), vehicle: carboxymethylcellulose (CMC) 88 % of control

C[N+](C)(C)CCNC(=O)C12CC3CC(CC(C3)C1)C2
inactive: [12] 89 % of control | [13] 94 % of control | [14] 86 % of control

O=C(NOCc1cscn1)NC1CCCCC1
inactive: dose: 75.0 mg/kg/injection, schedule: Q01DX001 (ip), vehicle: saline 98 % of control

CC(C)C(C)/C=C/C(C)C1CCC2C3=C(C=CC21C)C1(C)CCCCC1=CC3C1C=C2CCCCC2(C)C2=C1C1CCC(C(C)/C=C/C(C)C(C)C)C1(C)C=C2 (stereo unspecified)
inactive: [15] 90 % of control | [16] 100 % of control | [17] 90 % of control

CCS(=O)(=O)C(S(C)(=O)=O)S(=O)(=O)C(C)C (stereo unspecified)
inactive: [15] 92 % of control | [16] 96 % of control | [17] 89 % of control

Cc1ccc(S(=O)(=O)NNC(=O)c2ccccc2NCC(O)C(O)C(O)CO)cc1 (stereo unspecified)
inactive: [2] 98 % of control | [3] 96 % of control | [4] 98 % of control

COC(=O)COc1ccc(Cl)c2ccccc12
inactive: dose: 50.0 mg/kg/injection, schedule: Q04DX002 (ip), vehicle: Klucel (hydroxypropylcellulose) (HPC) 89 % of control | [5] 96 % of control | [6] 99 % of control and 105 % of control | [7] 92 % of control

ClCc1cccc(CCl)c1
inactive: dose: 50.0 mg/kg/injection, schedule: Q01DX001 (ip), vehicle: saline 95 % of control | dose: 50.0 mg/kg/injection, schedule: Q01DX009 (ip), vehicle: saline sonified 103 % of control | [18] 95 % of control | dose: 100.0 mg/kg/injection, schedule: Q01DX009 (ip), vehicle: saline sonified 102 % of control | [19] 97 % of control | dose: 200.0 mg/kg/injection, schedule: Q01DX009 (ip), vehicle: saline sonified 103 % of control

O=C(O)CCc1cccc(O)c1
inactive: [12] 111 % of control | [13] 111 % of control | [14] 101 % of control

O=C(OC1C=CCC=C1)c1cc([N+](=O)[O-])cc([N+](=O)[O-])c1
inactive: dose: 100.0 mg/kg/injection, schedule: Q04DX003 (ip), vehicle: other 101 % of control | dose: 200.0 mg/kg/injection, schedule: Q04DX003 (ip), vehicle: other 101 % of control | dose: 400.0 mg/kg/injection, schedule: Q04DX003 (ip), vehicle: other 94 % of control

CCOC(=O)NC(C)(C)CC(C)(C)C
inactive: [20] 101 % of control | [15] 108 % of control | [21] 98 % of control | [16] 94 % of control | dose: 400.0 mg/kg/injection, schedule: Q01DX009 (ip), vehicle: Klucel (hydroxypropylcellulose) (HPC) 103 % of control | [17] 97 % of control

CC(C)(CO)C(O)C(=O)NCCC(=O)c1ccccc1 (stereo unspecified)
inactive: [18] 103 % of control | [19] 92 % of control | [22] 103 % of control

CC1CC(C)(C)S(=O)(=O)O1 (stereo unspecified)
inactive: [1] 107 % of control | [2] 98 % of control | [3] 109 % of control | [4] 102 % of control

CC(C)OC(=S)Nc1ccccc1
inactive: dose: 50.0 mg/kg/injection, schedule: Q01DX009 (ip), vehicle: Klucel (hydroxypropylcellulose) (HPC) 102 % of control | dose: 100.0 mg/kg/injection, schedule: Q01DX001 (ip), vehicle: gum acacia 102 % of control | [20] 107 % of control | dose: 200.0 mg/kg/injection, schedule: Q01DX001 (ip), vehicle: gum acacia 98 % of control | [21] 98 % of control | dose: 400.0 mg/kg/injection, schedule: Q01DX001 (ip), vehicle: gum acacia 95 % of control

c1ccc2c(c1)OC1(CCSCC1)O2
inactive: [9] 98 % of control | [10] 95 % of control | [11] 97 % of control

O=C(O)CNC(=S)Nc1ccc(S(=O)(=O)c2ccc(NC(=S)NCC(=O)O)cc2)cc1
inactive: [18] 102 % of control | [19] 102 % of control | [22] 102 % of control

C=C(Cl)CNN1CCOCC1
inactive: dose: 25.0 mg/kg/injection, schedule: Q01DX009 (ip), vehicle: saline with Tween-80 96 % of control | dose: 25.0 mg/kg/injection, schedule: Q04DX003 (ip), vehicle: saline with Tween-80 95 % of control | dose: 50.0 mg/kg/injection, schedule: Q01DX009 (ip), vehicle: saline with Tween-80 98 % of control | dose: 50.0 mg/kg/injection, schedule: Q04DX003 (ip), vehicle: saline with Tween-80 97 % of control | [8] 114 % of control | [9] 98 % of control and 111 % of control | [10] 94 % of control

C=CC(C)(O)CCC1C(=C)C(O)CC2C(C)(C)CCCC12C (stereo unspecified)
inactive: dose: 100.0 mg/kg/injection, schedule: Q01DX009 (ip), vehicle: saline 100 % of control | [23] 105 % of control | dose: 200.0 mg/kg/injection, schedule: Q01DX009 (ip), vehicle: saline 100 % of control | [24] 95 % of control | dose: 400.0 mg/kg/injection, schedule: Q01DX009 (ip), vehicle: saline 94 % of control | [25] 90 % of control

CN1CCC=C(CN2c3ccccc3Sc3ccc(Cl)cc32)C1
inactive: dose: 12.5 mg/kg/injection, schedule: Q01DX009 (ip), vehicle: saline 119 % of control | dose: 12.5 mg/kg/injection, schedule: Q04DX003 (ip), vehicle: saline 101 % of control | dose: 16.5 mg/kg/injection, schedule: Q04DX003 (ip), vehicle: saline 98 % of control | dose: 25.0 mg/kg/injection, schedule: Q01DX009 (ip), vehicle: saline 113 % of control | dose: 25.0 mg/kg/injection, schedule: Q04DX003 (ip), vehicle: saline 105 % of control | dose: 37.5 mg/kg/injection, schedule: Q04DX003 (ip), vehicle: saline 105 % of control | dose: 50.0 mg/kg/injection, schedule: Q01DX009 (ip), vehicle: saline 114 % of control | dose: 50.0 mg/kg/injection, schedule: Q04DX003 (ip), vehicle: saline 110 % of control

CC(=O)N(C1=C(N(CCO)CCO)C(=O)c2ccccc2C1=O)c1ccccc1
inactive: [9] 106 % of control | [10] 103 % of control | [11] 101 % of control

CC(=O)N1CCOCC1
inactive: [23] 93 % of control | [24] 98 % of control | [25] 102 % of control
